Experimental data taken from patent US20230365571A1, “COMPOUNDS AND COMPOSITIONS AS Sppl2a INHIBITORS” (Novartis AG, priority 2020, published 2023).

Legend:
human SPPL2a [1] = biological target: T1, human SPPL2a (Homo sapiens, UniProt Q8TCT8); assay: Sppl2a RGA (reporter gene assay) in HEK293 cells; type: cell-based; parameters: expressed in transfected cells; host or cells: HEK293 (transient); conditions: NT-TNF-VP16-Gal4 substrate, Gal4-luciferase reporter, 24 h
T1 sequence (Q8TCT8 26-520): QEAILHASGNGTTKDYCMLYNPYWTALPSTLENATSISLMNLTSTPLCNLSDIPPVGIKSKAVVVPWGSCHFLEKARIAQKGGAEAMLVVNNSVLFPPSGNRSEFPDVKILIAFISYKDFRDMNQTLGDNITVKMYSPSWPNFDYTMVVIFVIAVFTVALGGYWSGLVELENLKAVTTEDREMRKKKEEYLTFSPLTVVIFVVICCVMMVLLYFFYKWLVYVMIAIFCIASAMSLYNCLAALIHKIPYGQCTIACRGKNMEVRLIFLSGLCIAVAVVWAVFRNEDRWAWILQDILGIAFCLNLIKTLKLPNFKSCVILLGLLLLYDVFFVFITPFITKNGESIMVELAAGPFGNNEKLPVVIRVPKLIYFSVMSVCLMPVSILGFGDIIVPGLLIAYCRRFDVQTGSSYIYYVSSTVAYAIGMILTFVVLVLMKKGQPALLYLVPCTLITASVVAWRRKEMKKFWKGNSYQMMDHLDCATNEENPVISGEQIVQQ
Outline: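 HEK293 cells transiently co-transfected with human SPPL2a, NT-TNF-VP16-Gal4 substrate and Gal4-luciferase reporter, compound added within 5 h. After 24 h at 37 °C, luciferase luminescence measured; IC50 from concentration versus normalized luminescence.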

human SPPL2a [2] = biological target: T1, human SPPL2a; assay: Sppl2a TL (translocation) imaging assay in U-2 OS cells; type: cell-based; parameters: expressed in transfected cells; conditions: U-2 OS cells expressing human SPPL2a and EGFP-TNFα(aa1-76) NTF substrate; 24 h
Outline: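 U-2 OS cells stably expressing human SPPL2a plus doxycycline-induced EGFP-TNFα(aa1-76) NTF, treated 24 h at 37 °C with inhibitor (100 μM–1 nM, 11 points, 0.9% DMSO, 5 μg/mL doxycycline). Imaging of nuclear-minus-cytoplasmic EGFP intensity; % inhibition versus 0.5 μM LY-411,575 and DMSO, IC50 by nonlinear regression; CC50 from cell count.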

Row | Compound | IC50 (human SPPL2a [1]) | IC50 (human SPPL2a [2])
1 | C[C@H](CC(=O)Nc1sc(-c2cnn(C3COC3)c2)nc1Cl)C(=O)N[C@@H]1C(=O)N2CCCN2Cc2ccccc21 [Example 95, (R)-N^4-(4-Chloro-2-(1-(oxetan-3-yl)-1H-pyrazol-4-yl)thiazol-5-yl)-2-methyl-N^1-((S)-11-oxo-2,3,10,11-tetrahydro-1H,5H-benzo[d]pyrazolo [1,2-a][1,2]diazepin-10-yl)succinamide] | 23 nM | 12 nM
2 | C[C@H](CC(=O)Nc1cc(-c2ccco2)nn1C1CC1)C(=O)N[C@@H]1C(=O)N2CCCN2Cc2ccccc21 [Example 96, (R)-N^4-(1-Cyclopropyl-3-(furan-2-yl)-1H-pyrazol-5-yl)-2-methyl-N^1-((S)-11-oxo-2,3,10,11-tetrahydro-1H,5H-benzo[d]pyrazolo [1,2-a][1,2]diazepin-10-yl)succinamide] | 28 nM | 12 nM
3 | COc1ccc(-c2cc(NC(=O)C[C@@H](C)C(=O)N[C@@H]3C(=O)N4CCCN4Cc4ccccc43)n(C)n2)cn1 [Example 97, (R)-N^4-(3-(6-Methoxypyridin-3-yl)-1-methyl-1H-pyrazol-5-yl)-2-methyl-N^1-((S)-11-oxo-2,3,10,11-tetrahydro-1H,5H-benzo[d]pyrazolo [1,2-a][1,2]diazepin-10-yl)succinamide] | 15 nM | 13 nM
4 | O=C(C[C@H](C(=O)N[C@@H]1C(=O)N2CCCN2C(=O)c2ccccc21)C1CC1)Nc1sc(-c2cnn(C(F)F)c2)nc1Cl [Example 104, (S)-N^4-(4-Chloro-2-(1-(difluoromethyl)-1H-pyrazol-4-yl)thiazol-5-yl)-2-cyclopropyl-N^1-((S)-5,11-dioxo-2,3,10,11-tetrahydro-1H,5H-benzo[d]pyrazolo [1,2-a][1,2]diazepin-10-yl)succinamide] | 17 nM | 17 nM
5 | Cc1ccc(-c2cc(NC(=O)C[C@@H](C)C(=O)N[C@@H]3C(=O)N4CCCN4Cc4ccccc43)n(C)n2)cn1 [Example 105, (R)-2-Methyl-N^4-(1-methyl-3-(6-methylpyridin-3-yl)-1H-pyrazol-5-yl)-N^1-((S)-11-oxo-2,3,10,11-tetrahydro-1H,5H-benzo[d]pyrazolo [1,2-a][1,2]diazepin-10-yl)succinamide] | 23 nM | 18 nM
6 | Cc1cccc(C)c1NC(=O)c1cc(NC(=O)C[C@@H](C)C(=O)N[C@@H]2C(=O)N3CCCN3Cc3ccccc32)n(C)n1 [Example 110] | 20 nM | 15 nM
7 | C[C@H](Cc1nc2ccccc2[nH]1)C(=O)N[C@@H]1C(=O)N2CCCN2Cc2ccccc21 [Example 111, (R)-3-(1H-benzo[d]imidazol-2-yl)-2-methyl-N—((S)-11-oxo-2,3,10,11-tetrahydro-1H,5H-benzo[d]pyrazolo[1,2-a][1,2]diazepin-10-yl)propanamide] | 77 nM | 666 nM
8 | Cc1cccc2nc(C[C@@H](C)C(=O)N[C@@H]3C(=O)N4CCCN4Cc4ccccc43)[nH]c12 [Example 112, (R)-2-methyl-3-(7-methyl-1H-benzo[d]imidazol-2-yl)-N-((S)-11-oxo-2,3,10,11-tetrahydro-1H,5H-benzo[d]pyrazolo[1,2-a][1,2]diazepin-10-yl)propanamide] | 28 nM | 139 nM
9 | C[C@H](Cc1nc2cccc(Br)c2[nH]1)C(=O)N[C@@H]1C(=O)N2CCCN2Cc2ccccc21 [Example 113, (R)-3-(7-bromo-1H-benzo[d]imidazol-2-yl)-2-methyl-N-((S)-11-oxo-2,3,10,11-tetrahydro-1H,5H-benzo[d]pyrazolo[1,2-a][1,2]diazepin-10-yl)propanamide] | 42 nM | 180 nM
10 | C[C@H](Cc1nc2cccc(C(F)(F)F)c2[nH]1)C(=O)N[C@@H]1C(=O)N2CCCN2Cc2ccccc21 [Example 114, (R)-2-methyl-N-((S)-11-oxo-2,3,10,11-tetrahydro-1H,5H-benzo[d]pyrazolo[1,2-a][1,2]diazepin-10-yl)-3-(7-(trifluoromethyl)-1H-benzo[d]imidazol-2-yl)propanamide] | 63 nM | 548 nM
11 | C[C@H](Cc1nc2c(Cl)cccc2[nH]1)C(=O)N[C@@H]1C(=O)N2CCCN2Cc2ccccc21 [Example 115, (R)-3-(4-chloro-1H-benzo[d]imidazol-2-yl)-2-methyl-N-((S)-11-oxo-2,3,10,11-tetrahydro-1H,5H-benzo[d]pyrazolo[1,2-a][1,2]diazepin-10-yl)propanamide] | 228 nM | 3970 nM
12 | Cc1cc(F)cc2nc(C[C@@H](C)C(=O)N[C@@H]3C(=O)N4CCCN4Cc4ccccc43)[nH]c12 [Example 117, (R)-3-(5-fluoro-7-methyl-1H-benzo[d]imidazol-2-yl)-2-methyl-N-((S)-11-oxo-2,3,10,11-tetrahydro-1H,5H-benzo[d]pyrazolo[1,2-a][1,2]diazepin-10-yl)propanamide] | 21 nM | 140 nM

Stronger by IC50 (human SPPL2a [1]), values ahead:

Row | IC50 (human SPPL2a [1]) | IC50 (human SPPL2a [2]) | Compound
13 | 7 nM | 10 nM | C[C@H](CC(=O)Nc1cn(-c2ccc(C(F)(F)F)nc2)nc1Cl)C(=O)N[C@@H]1C(=O)N2CCCN2Cc2ccccc21 [Example 88, (R)-N^4-(3-Chloro-1-(6-(trifluoromethyl)pyridin-3-yl)-1H-pyrazol-4-yl)-2-methyl-N^1-((S)-11-oxo-2,3,10,11-tetrahydro-1H,5H-benzo[d]pyrazolo [1,2-a][1,2]diazepin-10-yl)succinamide]
14 | 11 nM | 12 nM | Cc1nn(-c2ccc(C(F)(F)F)nc2)cc1NC(=O)C[C@@H](C)C(=O)N[C@@H]1C(=O)N2CCCN2Cc2ccccc21 [Example 92, (R)-2-Methyl-N^4-(3-methyl-1-(6-(trifluoromethyl)pyridin-3-yl)-1H-pyrazol-4-yl)-N^1-((S)-11-oxo-2,3,10,11-tetrahydro-1H,5H-benzo[d]pyrazolo [1,2-a][1,2]diazepin-10-yl)succinamide]
15 | 8 nM | 14 nM | C[C@H](CC(=O)Nc1cc(-c2cncc(C(F)(F)F)c2)nn1C)C(=O)N[C@@H]1C(=O)N2CCCN2Cc2ccccc21 [Example 98, (R)-2-Methyl-N^4-(1-methyl-3-(5-(trifluoromethyl)pyridin-3-yl)-1H-pyrazol-5-yl)-N^1-((S)-11-oxo-2,3,10,11-tetrahydro-1H,5H-benzo[d]pyrazolo [1,2-a][1,2]diazepin-10-yl)succinamide]
16 | 8 nM | 10 nM | O=C(C[C@H](C(=O)N[C@@H]1C(=O)N2CC3(CC3)CN2C(=O)c2ccccc21)C1CC1)Nc1sc(-c2ccc(C(F)(F)F)nc2)nc1Cl [Example 106, (S)-N^4-(4-Chloro-2-(6-(trifluoromethyl)pyridin-3-yl)thiazol-5-yl)-2-cyclopropyl-N^1-((S)-5,11-dioxo-10,11-dihydro-1H,3H,5H-spiro[benzo[d]pyr-azolo[1,2-a][1,2]diazepine-2,1′-cyclopropan]-10-yl)succinamide]
17 | 11 nM | 15 nM | O=C(C[C@H](C(=O)N[C@@H]1C(=O)N2CCCN2C(=O)c2ccccc21)C1CC1)Nc1sc(-c2ccc(C(F)(F)F)nc2)nc1Cl [Example 107, (S)-N^4-(4-Chloro-2-(6-(trifluoromethyl)pyridin-3-yl)thiazol-5-yl)-2-cyclopropyl-N^1-((S)-5,11-dioxo-2,3,10,11-tetrahydro-1H,5H-benzo[d]pyrazolo [1,2-a][1,2]diazepin-10-yl)succinamide]
18 | 3 nM | 3 nM | C[C@H](CC(=O)Nc1sc(-c2ccc(C(F)(F)F)nc2)nc1Cl)C(=O)N[C@@H]1C(=O)N2CCCN2Cc2ccccc21 [Example 108, (R)-N^4-(4-Chloro-2-(6-(trifluoromethyl)pyridin-3-yl)thiazol-5-yl)-2-methyl-N^1-((S)-11-oxo-2,3,10,11-tetrahydro-1H,5H-benzo[d]pyrazolo [1,2-a][1,2]diazepin-10-yl)succinamide]
19 | 3 nM | 2 nM | C[C@H](CC(=O)Nc1cc(C(=O)Nc2ccccc2F)nn1C)C(=O)N[C@@H]1C(=O)N2CCCN2Cc2ccccc21 [Example 109, (R)—N^4-(3-((2-fluorophenyl)carbamoyl)-1-methyl-1H-pyrazol-5-yl)-2-methyl-N^1—((S)-11-oxo-2,3,10,11-tetrahydro-1H,5H-benzo[d]pyrazolo[1,2-a][1,2]diazepin-10-yl)succinamide]
20 | 13 nM | 116 nM | Cc1c(F)ccc2nc(C[C@@H](C)C(=O)N[C@@H]3C(=O)N4CCCN4Cc4ccccc43)[nH]c12 [Example 116, (R)-3-(6-fluoro-7-methyl-1H-benzo[d]imidazol-2-yl)-2-methyl-N-((S)-11-oxo-2,3,10,11-tetrahydro-1H,5H-benzo[d]pyrazolo[1,2-a][1,2]diazepin-10-yl)propanamide]
